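Test compounds were applied to cells in 96-well plates for 48 hours at 5 doses. TGI is the concentration that stops growth completely.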
What was measured:
Assay in all cases: growth of human tumour cells (NCI), 48 h
[1] = test system: OVCAR-4 ovarian
[2] = test system: HCT-116 colon
[3] = test system: A549 NSCLC
[4] = test system: HOP-62 NSCLC
[5] = test system: RXF 393 renal
[6] = test system: K-562 leukemia
[7] = test system: OVCAR-8 ovarian
[8] = test system: MCF7 breast
[9] = test system: NCI/ADR-RES ovarian
[10] = test system: NCI-H460 lung
[11] = test system: HS 578T breast
[12] = test system: OVCAR-3 ovarian
[13] = test system: SK-MEL-28 melanoma
[14] = test system: TK-10 renal
[15] = test system: DU-145 prostate
[16] = test system: SNB-75 CNS
[17] = test system: U251 CNS

Compound | TGI [1] [µM] | TGI [2] [µM] | TGI [3] [µM] | TGI [4] [µM] | TGI [5] [µM] | TGI [6] [µM] | TGI [7] [µM] | TGI [8] [µM] | TGI [9] [µM] | TGI [10] [µM] | TGI [11] [µM] | TGI [12] [µM] | TGI [13] [µM] | TGI [14] [µM] | TGI [15] [µM] | TGI [16] [µM] | TGI [17] [µM]
O=C1CCCC1C(O)(C(F)(F)F)C(F)(F)F (stereo not drawn) | > 100 | > 100 | > 100 | > 100 | > 100 | > 100 | > 100 | > 100 | > 100 | > 100 | > 100 | > 100 | > 100 | > 100 | > 100 | > 100 | > 100
CCOc1cc2c(cc1O)CC[C@@H]1[C@@H]2CC[C@]2(C)C(N)CC[C@@H]12 (stereo partly drawn) | 58.7 | 12.6 | 16.1 | 40.4 | 7.33 | 27.5 | 11.2 | 28.1 | 8.98 | 11.6 | 23.2 | 24.7 | 23.6 | 15 | 7.08 | 6.48 | 9.37
O=C(NNCc1ccco1)c1cc2ccccc2[nH]1 | > 71.8 | > 100 | > 100 | > 100 | > 100 | > 100 | > 86.5 | > 46.3 | > 80.8 | > 100 | > 100 | > 95 | > 100 | > 100 | > 100 | > 100 | > 40.9
S=C1CSc2c(ccc3ccccc23)N1 | > 100 | > 100 | > 100 | > 100 | > 100 | > 100 | > 100 | > 100 | > 100 | > 100 | > 100 | > 100 | > 100 | > 100 | > 100 | > 100 | > 100
COC(=O)C(Cc1ccc(Oc2cc(CC(NC(=O)c3ccccc3)C(=O)OC)ccc2OC)cc1)NC(=O)c1ccccc1 (stereo not drawn) | > 72.5 | > 100 | > 100 | > 100 | 28.5 | > 100 | > 60.9 | > 100 | > 100 | > 100 | 61.8 | > 87.3 | > 52.4 | > 59.8 | > 50.3 | > 100 | > 100
O=P1(c2ccccc2)C(c2ccccc2)=CC=C1c1ccccc1 | > 100 | > 100 | > 100 | > 100 | > 100 | 22.4 | 43.4 | 66.6 | > 100 | > 100 | > 100 | 89.8 | > 100 | 60.1 | > 100 | 60.1 | 43.8
CC1(c2cccc(Cl)c2)CC(c2cccc(Cl)c2)=C(C#N)C(=C(C#N)C#N)N1 (stereo not drawn) | 32.6 | 34.1 | 42.1 | 41.3 | 29.3 | > 100 | 42.6 | 51.6 | 48.1 | 94.3 | 34.1 | 23 | 74 | 31.8 | 29.3 | 34.3 | 37.8
Cc1ccc2c(c1)CC1(Cc3c(C)cccc3C1=O)C2=O (stereo not drawn) | > 100 | > 100 | > 100 | 71.9 | > 100 | > 100 | > 100 | > 100 | > 100 | > 100 | 87.4 | > 100 | > 100 | > 100 | > 100 | 89.7 | > 100
C=CC[C@@]1([C@H](C=C)COCc2ccc(OC)cc2)CC[C@]2(C)OC(C)(C)[C@@H](c3ccccc3)N2C1=S | > 100 | > 100 | > 100 | > 100 | > 100 | > 100 | > 100 | > 100 | > 100 | > 100 | > 100 | > 100 | > 100 | > 100 | > 100 | > 100 | > 100
N#Cc1ccc(C(=O)/C=C/c2ccc(O)c(O)c2)cc1 | 25.7 | 22.8 | 31.8 | 32.4 | 32.4 | 34 | > 54.8 | 26 | > 65.8 | 29.8 | > 76.6 | 29.3 | 29 | 27.6 | 30 | 36.6 | 26.2
CC(C)(C)OC(=O)N1CCC2(C)CC(=O)CC=C12 (stereo not drawn) | > 100 | > 100 | > 100 | > 100 | > 100 | > 100 | > 100 | > 100 | > 100 | > 100 | > 100 | > 100 | > 100 | > 100 | > 100 | > 100 | > 100
Cc1cc2nc(N3C(=O)/C(=C/c4ccccc4S)N=C3c3ccccc3)sc2cc1C | > 100 | 61.3 | > 100 | > 100 | 94.4 | > 100 | > 100 | > 100 | 92.3 | > 100 | > 100 | > 100 | > 100 | > 100 | > 100 | > 100 | > 100
Cc1ccc(C2SC(N)=Nc3c2c(C)nn3C(=O)c2ccccc2O)cc1 (stereo not drawn) | > 10 | > 10 | > 10 | > 10 | > 10 | > 10 | > 10 | > 10 | > 10 | > 10 | 5.27 | > 10 | > 10 | > 10 | > 10 | 7.14 | > 10
c1ccc2c(c1)cc1c3[nH]c4ccccc4c3ccn21 | > 10 | > 10 | > 10 | > 10 | > 10 | > 10 | > 10 | > 10 | > 10 | > 10 | > 10 | > 10 | > 10 | > 10 | > 10 | > 10 | > 10

From PubChem BioAssay (NCI)
